Assay results: US8846656B2, “Tetrahydropyrido-pyridine and tetrahydropyrido-pyrimidine compounds and use thereof as C5a receptor modulators” (Novartis AG, priority 2011, dated 2014)
Where two headings read alike, the source gives them in different places.

Columns and labels:
[1] = target: human C5aR (Homo sapiens (Human), UniProt P21730); experiment: FLIPR assay: inhibition of C5a-mediated calcium mobilization; type: cell-based; details: stable cell line over expressing human C5aR & Gα15, human C5a at EC50 (0.1-0.25 nM)
Sequence of human C5aR (P21730 whole entry): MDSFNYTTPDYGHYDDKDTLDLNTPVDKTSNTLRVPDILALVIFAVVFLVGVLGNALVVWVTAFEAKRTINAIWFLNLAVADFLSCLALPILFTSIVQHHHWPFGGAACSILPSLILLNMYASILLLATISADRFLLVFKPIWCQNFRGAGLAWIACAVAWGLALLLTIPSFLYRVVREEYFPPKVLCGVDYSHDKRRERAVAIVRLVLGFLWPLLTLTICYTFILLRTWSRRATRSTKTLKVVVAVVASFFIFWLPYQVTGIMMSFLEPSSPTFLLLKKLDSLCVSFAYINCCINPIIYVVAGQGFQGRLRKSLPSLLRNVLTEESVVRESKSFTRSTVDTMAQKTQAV
Description: Compounds were tested for their ability to inhibit C5a-mediated calcium mobilization using a stable cell line over expressing the human C5aR & the Gα15 protein on the FLIPR (Fluorescent Imaging Plate Reader) Tetra system. Cells were maintained in culture media containing DMEM (Dulbecco's Modified Eagle Medium) with 4.5 g/L glucose, 10% fetal bovine serum, 100 U/mL, 1× non-essential amino acid, and 250 μg/mL G418 (Geneticin). Prior to testing of compounds, cells were plated at 10,000 cells/well in clear bottom 384-well black plate, and incubated overnight at 37° C. with 5% CO2. On the day of experiment, culture media was removed, and replaced with assay buffer HBSS (Hanks' Balanced Salt Solution) with 20 mM HEPES (4-(2-hydroxyethyl)-1-piperazineethanesulfonic acid) and 0.1% BSA (bovine serum albumin) BSA containing calcium 5 dye (Molecular Devices) and 2.5 mM probenecid. After 1 hour incubation at 37° C., 5% CO2 for 60 min, cells were pre-incubated with compounds for 30 minutes at room temperature, in 1% DMSO (dimethyl sulfoxide).

[2] = tested on: CD11b; experiment: Human whole blood CD11b up-regulation assay; type: cell-based; details: 2 nM human C5a, CD15+ granulocytes, read-out: hCD11b IC50
Description: Whole blood was collected in sodium heparin tubes and the assay started within 2 hours of the blood draw. The blood was incubated with compounds in 1% DMSO (dimethyl sulfoxide) at room temperature for 10 minutes with gentle rocking. 2 nM of human C5a was then added for 15 minutes at room temperature with gentle rocking. Following the C5a incubation period cells were washed once with cold FACS (fluorescence-activated cell sorting) buffer (phosphate buffered saline+0.5% bovine serum albumin) FITC (fluorescein isothiocyanate) mouse anti-human CD15 and PE-Cy5 (phycoerythrin-cyanine 5) mouse anti-human CD11b antibodies (Becton Dickinson) were gently mixed with the cells and allowed to incubate for 30 minutes on ice protected from the light. Cells were then washed three times with cold FACS buffer. Red blood cells (RBC) were lysed by incubating with BD FACS lysis buffer (Becton Dickinson) for 10 minutes at room temperature. Cells were pelleted and the lysing procedure was repeated until all RBCs were lysed. The remaining leukocytes were resuspended in BD lysis buffer. Samples were acquired on the LSR^11 flow cytometer and 10,000 events of the CD15+ granulocyte population were collected. The CD11b median fluorescence intensity of the CD 15+ cell population was evaluated using FACSDiva software (Becton Dickinson).

**Q.** What does the source list for `Cc1ccc2[nH]nc(C)c2c1-c1nc2c(c(N3CC[C@@H](N(C)C)C3)n1)CN(c1c(Cl)c(C3CC3)nn1C)CC2` [Example 68-C, (R)-1-(6-(4-chloro-3-cyclopropyl-1-methyl-1H-pyrazol-5-yll)-2-(3,5-dimethyl-1H-indazol-4-yl)-5,6,7,8-tetrahydropyrido[4,3-d]pyrimidin-4-yl)-N,N-dimethylpyrrolidin-3-amine]?
**A.** IC50 [1]: 16 nM; IC50 ([2]; Homo sapiens): 69 nM

**Q.** For `Cc1ccc(C(C)C)cc1N1CCc2nc(-c3c(C)ccc4[nH]nc(C)c34)nc(OCC(F)F)c2C1` [Example 63-E, 4-(2,2-difluoroethoxy)-2-(3,5-dimethyl-1H-indazol-4-yl)-6-(5-isopropyl-2-methylphenyl)-5,6,7,8-tetrahydropyrido[4,3-d]pyrimidine], which IC50 [1] is on record?
**A.** Its IC50 is 23 nM.

**Q.** And the IC50 ([2]; Homo sapiens)?
**A.** The IC50 was 29 nM.

**Q.** With `CCc1cccc(CC)c1-c1cc(C)c2c(n1)CCN(c1cc(C3CC3)ccc1C)C2` [Example 40-M, 6-(5-cyclopropyl-2-methylphenyl)-2-(2,6-diethylphenyl)-4-methyl-5,6,7,8-tetrahydro-1,6-naphthyridine] as the molecule, how does the IC50 [1] read?
**A.** Its IC50 is 11 nM.

**Q.** And the IC50 ([2]; Homo sapiens)?
**A.** Its IC50 is 69 nM.

**Q.** How did the IC50 [1] turn out when `CO[C@@H]1CCN(c2nc(-c3c(C)ccc4[nH]nc(C)c34)nc3c2CN(c2cc(C4CC4)nn2C)CC3)[C@H](C)C1` [Example 23-H, 6-(3-cyclopropyl-1-methyl-1H-pyrazol-5-yl)-2-(3,5-dimethyl-1H-indazol-4-yl)-4-((2R,4R)-4-methoxy-2-methylpiperidin-1-yl)-5,6,7,8-tetrahydropyrido[4,3-d]pyrimidine] was run?
**A.** Its IC50 is 1 nM.

**Q.** And the IC50 ([2]; Homo sapiens)?
**A.** Its IC50 is 24 nM.

**Q.** Which IC50 ([2]; Homo sapiens) does the source give for `Cc1ccc2[nH]nc(C)c2c1-c1nc2c(c(N3CCOC[C@H]3C)n1)CN(c1c(F)c(C3CC3)nn1C)CC2` [Example 76-C, (R)-4-(6-(3-Cyclopropyl-4-fluoro-1-methyl-1H-pyrazol-5-yl)-2-(3,5-dimethyl-1H-indazol-4-yl)-5,6,7,8-tetrahydropyrido[4,3-d]pyrimidin-4-yl)-3-methylmorpholine] here?
**A.** The IC50 was 46 nM.

**Q.** What does the source list for `CO[C@H]1CCN(c2nc(-c3c(C)cccc3C)nc3c2CN(c2cc(C(C)C)ccc2C)CC3)CC1(C)C` [Example 19-AD, (S)-2-(2,6-dimethylphenyl)-6-(5-isopropyl-2-methylphenyl)-4-(4-methoxy-3,3-dimethylpiperidin-1-yl)-5,6,7,8-tetrahydropyrido[4,3-d]pyrimidine]?
**A.** IC50 [1]: 2 nM; IC50 ([2]; Homo sapiens): 26 nM

**Q.** For `Cc1ccc2[nH]nc(C)c2c1-c1nc2c(c(N3CC[C@@H]4OC[C@]4(C)C3)n1)CN(c1c(Cl)c(C3CC3)nn1C)CC2` (racemic) [Example 69-L, (1S*,6S*)-3-(6-(4-chloro-3-cyclopropyl-1-methyl-1H-pyrazol-5-yl)-2-(3,5-dimethyl-1H-indazol-4-yl)-5,6,7,8-tetrahydropyrido[4,3-d]pyrimidin-4-yl)-1-methyl-7-oxa-3-azabicyclo[4.2.0]octane], which IC50 ([2]; Homo sapiens) is on record?
**A.** The IC50 was 54 nM.

**Q.** `Cc1ccc(C(C)C)cc1N1CCc2nc(-c3c(C)ccc4[nH]ncc34)cc(C)c2C1` [Example 41-D, 6-(5-Isopropyl-2-methylphenyl)-4-methyl-2-(5-methyl-1H-indazol-4-yl)-5,6,7,8-tetrahydro-1,6-naphthyridine] was tested. Which IC50 ([2]; Homo sapiens) did it give?
**A.** Its IC50 is 153 nM.

**Q.** Which IC50 ([2]; Homo sapiens) does the source give for `[2H]C1([2H])c2c(C)cc(-c3c(C)ccc4[nH]ncc34)nc2CCN1c1cc(C(C)C)ccc1C` [Example 43-A, 6-(5-Isopropyl-2-methylphenyl)-4-methyl-2-(5-methyl-1H-indazol-4-yl)-5,6,7,8-tetrahydro(5,5-^2H2)-1,6-naphthyridine] here?
**A.** The IC50 was 178 nM.

**Q.** With `CO[C@H]1CCN(c2nc(-c3ccccc3C(F)(F)F)nc3c2CN(c2cc(C4CC4)ccc2C)CC3)CC1(C)C` [Example 19-K, (S)-6-(5-cyclopropyl-2-methylphenyl)-4-(4-methoxy-3,3-dimethylpiperidin-1-yl)-2-(2-(trifluoromethyl)phenyl)-5,6,7,8-tetrahydropyrido[4,3-d]pyrimidine] as the molecule, how does the IC50 [1] read?
**A.** The IC50 was 65 nM.

**Q.** Which IC50 ([2]; Homo sapiens) does the source give for `CCn1nc(C2CC2)c(Cl)c1N1CCc2nc(-c3c(C)ccc4[nH]nc(C)c34)nc(N3CCC3C)c2C1` (single isomer, unassigned) [Example 70-H, 6-(4-chloro-3-cyclopropyl-1-ethyl-1H-pyrazol-5-yl)-2-(3,5-dimethyl-1H-indazol-4-yl)-4-(2-methylazetidin-1-yl)-5,6,7,8-tetrahydropyrido[4,3-d]pyrimidine] here?
**A.** Its IC50 is 41 nM.

**Q.** `Cc1cc(-c2c(C)ccc3[nH]ncc23)nc2c1CN(c1cc(C3CC3)nn1C)CC2` [Example 40-Q, 6-(3-cyclopropyl-1-methyl-1H-pyrazol-5-yl)-4-methyl-2-(5-methyl-1H-indazol-4-yl)-5,6,7,8-tetrahydro-1,6-naphthyridine] was tested. Which IC50 [1] did it give?
**A.** Its IC50 is 868 nM.

**Q.** How did the IC50 [1] turn out when `CO[C@H]1C[C@H]2CC[C@@H](C1)N2c1nc(-c2c(C)cccc2C)nc2c1CN(c1cc(C3(C)COC3)ccc1C)CC2` [Example 21-X, 2-(2,6-dimethylphenyl)-4-((3-endo)-3-methoxy-8-azabicyclo[3.2.1]octan-8-yl)-6-(2-methyl-5-(3-methyloxetan-3-yl)phenyl)-5,6,7,8-tetrahydropyrido[4,3-d]pyrimidine] was run?
**A.** Its IC50 is 308 nM.

**Q.** With `COCCCOc1nc(-c2c(C)cccc2C)nc2c1CN(c1cc(C(C)C)ccc1C)CC2` [Example 39-D, 2-(2,6-Dimethylphenyl)-6-(5-isopropyl-2-methylphenyl)-4-(3-methoxypropoxy)-5,6,7,8-tetrahydropyrido[4,3-d]pyrimidine] as the molecule, how does the IC50 [1] read?
**A.** Its IC50 is 74 nM.

**Q.** For `COc1ccc(Cl)c(-c2cc(C)c3c(n2)CCN(c2cc(C(C)C)ccc2C)C3)c1` [Example 41-F, 2-(2-chloro-5-methoxyphenyl)-6-(5-isopropyl-2-methylphenyl)-4-methyl-5,6,7,8-tetrahydro-1,6-naphthyridine], which IC50 [1] is on record?
**A.** The IC50 was 550 nM.

**Q.** For `CCn1nc(C2CC2)c(Cl)c1N1CCc2nc(-c3c(C)ccc4[nH]nc(C)c34)nc(N3CCC3C)c2C1` (single isomer, unassigned) [Example 70-I, 6-(4-chloro-3-cyclopropyl-1-ethyl-1H-pyrazol-5-yl)-2-(3,5-dimethyl-1H-indazol-4-yl)-4-(2-methylazetidin-1-yl)-5,6,7,8-tetrahydropyrido[4,3-d]pyrimidine], which IC50 [2] is on record?
**A.** The IC50 was 38 nM.

**Q.** For `CCO[C@@H]1CCN(c2nc(-c3c(C)ccc4[nH]nc(C)c34)nc3c2CN(c2c(Cl)c(C4CC4)nn2C)CC3)[C@H](C)C1` [Example 55-J, 6-(4-chloro-3-cyclopropyl-1-methyl-1H-pyrazol-5-yl)-2-(3,5-dimethyl-1H-indazol-4-yl)-4-((2R,4R)-4-ethoxy-2-methylpiperidin-1-yl)-5,6,7,8-tetrahydropyrido[4,3-d]pyrimidine], which IC50 [1] is on record?
**A.** The IC50 was 5 nM.

**Q.** With `[2H]C1([2H])c2c(C)cc(-c3c(CC)cccc3CC)nc2CC(C)N1c1cc(C(C)C)ccc1C` (single isomer, unassigned) [Example 42-K, 2-(2,6-diethylphenyl)-6-(5-isopropyl-2-methylphenyl)-4,7-dimethyl-5,6,7,8-tetrahydro(5,5-^2H2)-1,6-naphthyridine] as the molecule, how does the IC50 [1] read?
**A.** Its IC50 is 217 nM.

**Q.** `[2H]C1([2H])c2c(C)cc(-c3c(CC)cccc3CC)nc2CC(C)N1c1cc(C2CC2)nn1C` (stereo not shown) [Example 42-H, 6-(3-cyclopropyl-1-methyl-1H-pyrazol-5-yl)-2-(2,6-diethylphenyl)-4,7-dimethyl-5,6,7,8-tetrahydro(5,5-^2H2)-1,6-naphthyridine] was tested. Which IC50 [1] did it give?
**A.** Its IC50 is 58 nM.

**Q.** `Cc1cccc(C)c1-c1nc2c(c(N3CCCC(C)(C)C3)n1)CN(c1cc(C(C)C)nn1C)CC2` [Example 16-I, 2-(2,6-Dimethylphenyl)-4-(3,3-dimethylpiperidin-1-yl)-6-(3-isopropyl-1-methyl-1H-pyrazol-5-yl)-5,6,7,8-tetrdhydropyrido[4,3-d]pyrimidine] was tested. Which IC50 [1] did it give?
**A.** The IC50 was 48 nM.

**Q.** How did the IC50 [1] turn out when `[2H]C1([2H])c2c(C)cc(-c3c(CC)cccc3CC)nc2CC(C)N1c1cc(C(C)C)ccc1C` (single isomer, unassigned) [Example 42-L, 2-(2,6-diethylphenyl)-6-(5-isopropyl-2-methylphenyl)-4,7-dimethyl-5,6,7,8-tetrahydro(5,5-^2H2)-1,6-naphthyridine] was run?
**A.** The IC50 was 4 nM.

**Q.** Which IC50 [1] does the source give for `COCCN(C)c1cc(-c2c(C)cccc2C)nc2c1CN(c1cc(C(C)C)ccc1C)CC2` [Example 51-D, 2-(2,6-dimethylphenyl)-6-(5-isopropyl-2-methylphenyl)-N-(2-methoxyethyl)-N-methyl-5,6,7,8-tetrahydro-1,6-naphthyridin-4-amine] here?
**A.** The IC50 was 197 nM.

**Q.** `Cc1ccc(C(C)C)cc1N1CCc2nc(-c3cccc4[nH]cc(C)c34)nc(N3CCC[C@H](O)C3)c2C1` [Example 17-AV, (S)-1-(6-(5-isopropyl-2-methylphenyl)-2-(3-methyl-1H-indol-4-yl)-5,6,7,8-tetrahydropyrido[4,3-d]pyrimidin-4-yl)piperidin-3-ol] was tested. Which IC50 [1] did it give?
**A.** Its IC50 is 12 nM.
